Where a name gives a salt, the structure may show the parent alone. Some results are limits rather than exact numbers.

These results are taken from patent US20080200551A1, “Flourene Derivative” (priority 2004, published 2008).

In one test the target is human 5-HT7 receptor (Homo sapiens, UniProt P34969). Nature of the test: Binding test of 5-HT7 receptor. Particulars: [3H]5-HT, human 5-HT7 expressing CHO cell membrane. As for the experimental part: (2) Binding Test of 5-HT7 Receptor
(i) Preparation of Membrane Preparation
CHO cell was used as the gene transferring cell.
Cultured CHO cells expressing human 5-HT7 receptor were washed with PBS (−). The cells were scraped in the presence of PBS(−), and the cells were recovered by centrifugation (1,000 rpm, 10 min, 4° C.). They were homogenized using Polytron (PTA 10-TS) in the presence of 5 mM Tris-HCl (pH 7.4) buffer and centrifuged (40,000×g, 10 min, 4° C.). They were suspended using a homogenizer in the presence of 50 mM Tris-HCl (pH 7.4) buffer. They were subjected to centrifugation (40,000×g, 10 min, 4° C.), suspended in 50 mM Tris-HCl (pH 7.4) and stored at −80° C.
(ii) Receptor Binding Test
The compound was dissolved in 100% DMSO and diluted to respective concentrations. Nonspecific binding was defined as the binding quantity in the presence of 10 μM metergoline, and the result of subtracting the nonspecific binding quantity from the total binding quantity was defined as the specific binding quantity. This was mixed with 4 ml of 50 mM Tris-HCl buffer (pH 7.4) and filtered under a reduced pressure using a GF/B glass filter, and the filter was washed (4 ml×3) with the same buffer. The glass filter was soaked in 5 ml of a liquid scintillator (Aquasol-2) and the radioactivity was measured using a liquid scintillation counter.

Test [1] concerns protein leaked from the dural blood vessel caused by 5-HT. In words: Preventive effect in guinea pig migraine model (leaked protein). The test is classed as in vivo. Particulars: for leakage of the protein: 10 mg/kg or 30 mg/kg of oral administration. As for the experimental part: (4) Preventive Effect in Guinea Pig Migraine Model
In this test system, migraine preventive effect was evaluated by measuring this leaked protein in the presence of a compound to be tested, and this was carried out by partially modifying the method described in Rachel A. Spokes and Vicki C. Middlefell, European Journal of Pharmacology (1995) 281, 75-79.
Hartley male guinea pig (250-350 g) was anesthetized by peritoneal administration (i.p.) of urethane (1.5 g/kg). By applying simple canulation to a saphena, 50 mg/kg of a fluorescent protein (FITC-BSA) was intravenously administered (i.v.) and 5 minutes thereafter, physiological saline or 1 μM of 5-HT was intravenously administered. By carrying out perfusion with physiological saline 15 minutes thereafter, blood was washed out. […] By detaching the skull, dura mater was took out and incubated at 37° C. for 16 hours in an Eppendorf tube in the presence of physiological saline of pH 11. Centrifugation was carried out, and the supernatant was dispensed into a plate. Fluorescence intensity was measured using a fluorescence plate reader (excitation wavelength 485 nm, […] 530 nm). By measuring dura mater weight, fluorescence intensity per mg dural protein was calculated.
Values of the fluorescence intensity measured at the time of the administration of each compound and at the time of no administration are shown in FIG. 1 to FIG. 4. […] The control indicates fluorescence intensity at the time of no addition of 5-HT, namely the reference value.

The target of a further test is 5-HT4 receptor (UniProt O70528). Nature of the test: Affinity for other receptors: 5-HT4. The class given is binding.
The target of the next test is α1 receptor. Nature of the test: Affinity for other receptors: α1. The test is classed as binding.
The next test addresses 5-HT6 receptor (UniProt P50406). Nature of the test: Affinity for other receptors: 5-HT6. The test is classed as binding.
A further test concerns 5-HT2B receptor. Particulars: against 5-HT1A, 5-HT1B, 5-HT2A, 5-HT2C, 5-HT3, 5-HT6, 5-HT7, α1, M1 and D2 receptors; cited from earlier work.

Chain of human 5-HT7 receptor (P34969 1-432 limits assumed): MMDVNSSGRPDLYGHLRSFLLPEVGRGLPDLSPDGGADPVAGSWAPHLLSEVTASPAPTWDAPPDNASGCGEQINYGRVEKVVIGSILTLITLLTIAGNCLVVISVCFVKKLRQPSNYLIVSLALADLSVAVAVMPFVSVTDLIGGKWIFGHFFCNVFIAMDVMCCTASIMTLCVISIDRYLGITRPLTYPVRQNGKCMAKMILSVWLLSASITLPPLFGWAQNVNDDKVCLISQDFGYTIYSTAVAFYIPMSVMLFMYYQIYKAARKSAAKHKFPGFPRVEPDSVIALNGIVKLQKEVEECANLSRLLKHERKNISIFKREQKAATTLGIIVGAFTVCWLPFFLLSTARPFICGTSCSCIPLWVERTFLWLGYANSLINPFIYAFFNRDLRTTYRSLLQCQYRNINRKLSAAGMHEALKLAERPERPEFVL

Broadly, the Ki is the dissociation constant of the complex between target and ligand, obtained from inhibition or displacement. The low end stands for higher affinity, the high end for lower affinity. As for `CC1(O)c2ccccc2-c2ccc(C(=O)N=C(N)N)cc21` (racemic) [Example 56, N-(diaminomethylene)-9-hydroxy-9-methyl-9H-fluorene-2-carboxamide], the inhibition constant Ki at human 5-HT7 receptor is 0.4 to 310 nM.

With `CC1(O)c2cc(C(=O)N=C(N)N)ccc2-c2c(F)cccc21` (racemic) [Example 77, N-(diaminomethylene)-5-fluoro-9-hydroxy-9-methyl-9H-fluorene-2-carboxamide], the Ki at human 5-HT7 receptor lay in the range of 0.4 to 310 nM.

With `CC1(O)c2ccccc2-c2ccc(C(=O)N=C(N)N)cc21` (single isomer, unassigned) [Example 56a, N-(diaminomethylene)-9-hydroxy-9-methyl-9H-fluorene-2-carboxamide (optically active substance A)], the Ki on human 5-HT7 receptor is 0.4 to 310 nM. Besides, in test [1], the “leakage of the protein” value is reported as “almost completely suppressed leakage of the protein”.

`NC(N)=NC(=O)c1ccc2c(c1)C1(CCCO1)c1ccccc1-2` (single isomer, unassigned) [Example 60a, N-(diaminomethylene)-4′,5′-dihydro-3′H-spiro[fluorene-9,2′-furan]-2-carboxamide (optically active substance A)]: the “leakage of the protein” value in test [1] was “almost completely suppressed leakage of the protein”.

`NC(N)=NC(=O)c1ccc2c(c1)C1(CCCO1)c1ccccc1-2` (single isomer, unassigned) [Example 60b, N-(diaminomethylene)-4′,5′-dihydro-3′H-spiro[fluorene-9,2′-furan]-2-carboxamide (optically active substance B)]: the “leakage of the protein” value in test [1] is given as “almost completely suppressed leakage of the protein”.

`CC1(O)c2cc(C(=O)N=C(N)N)ccc2-c2c(F)cccc21` (single isomer, unassigned) [Example 78a, N-(diaminomethylene)-5-fluoro-9-hydroxy-9-methyl-9H-fluorene-2-carboxamide (optically active substance A)] came in with a Ki on human 5-HT7 receptor of 0.4 to 310 nM.

Regarding `CC1(O)c2cc(C(=O)N=C(N)N)ccc2-c2c(F)cccc21` (single isomer, unassigned) [Example 78b, N-(diaminomethylene)-5-fluoro-9-hydroxy-9-methyl-9H-fluorene-2-carboxamide (optically active substance B)], the “leakage of the protein” value in test [1] is “almost completely suppressed leakage of the protein”.

For orientation: IC50 means the concentration at which inhibition is half-maximal. On to `Cl.NC(N)=NC(=O)c1ccc2c(c1)C(O)c1ccccc1-2` (stereo not shown) [Example 3, N-(diaminomethylene)-9-hydroxy-9H-fluorene-2-carboxamide hydrochloride], for which the IC50 against 5-HT4 receptor, against α1 receptor and on 5-HT6 receptor was no less than 1000 nM in each case. The “amount of the leaked protein” value in test [1] (3 mg/kg of intraperitoneal administration, FIG. 4) is listed as “almost completely suppressed the amount of leaked protein”.

On human 5-HT7 receptor, `CC(C)C1NC(=NC(=O)c2ccc3c(c2)C(O)c2ccccc2-3)NC1=O` [Example 8, 9-hydroxy-N-[(2EZ,4S)-4-isopropyl-5-oxoimidazolin-2-ylidene-9H-fluorene-2-carboxamide hydrochloride] showed an inhibition constant (Ki) of 0.4 to 310 nM.

Take `NC(N)=NC(=O)c1ccc2c(c1)C(O)c1c(Cl)cccc1-2` (stereo not shown) [Example 38, 8-chloro-N-(diaminomethylene)-9-hydroxy-9H-fluorene-2-carboxamide]: the Ki at human 5-HT7 receptor lay in the range of 0.4 to 310 nM.

In the case of `NC(N)=NC(=O)c1ccc2c(c1)C1(SCCS1)c1ccccc1-2` [Example 59], in test [1], the “leakage of the protein” value is on record as “almost completely suppressed leakage of the protein”.

Take `NC(N)=NC(=O)c1ccc2c(c1)C1(CC1)c1ccccc1-2` [Example 63, N-(diaminomethylene)spiro[cyclopropane-1,9′-fluorene]-2′-carboxamide]: at human 5-HT7 receptor, the Ki fell in the range of 0.4 to 310 nM.

In the case of `COC1(C)c2ccccc2-c2ccc(C(=O)N=C(N)N)cc21` (stereo not shown) [Example 71, N-(diaminomethylene)-9-methoxy-9-methyl-9H-fluorene-2-carboxamide], at human 5-HT7 receptor, the Ki lay within 0.4 to 310 nM.

For `CCC1(OC)c2ccccc2-c2ccc(C(=O)N=C(N)N)cc21` (stereo not shown) [Example 72, N-(diaminomethylene)-9-ethyl-9-methoxy-9H-fluorene-2-carboxamide], the Ki at human 5-HT7 receptor lay in the range of 0.4 to 310 nM.

For the compound `NC(N)=NC(=O)c1ccc2c(c1)C1(SCCS1)c1cccc(F)c1-2` [Example 85], in test [1], the “leakage of the protein” value is recorded as “almost completely suppressed leakage of the protein”.

In turn, `COC1(C)c2cc(C(=O)N=C(N)N)ccc2-c2c(F)cccc21` (stereo not shown) [Example 87, N-(diaminomethylene)-5-fluoro-9-methoxy-9-methyl-9H-fluorene-2-carboxamide] had a Ki on human 5-HT7 receptor of 0.4 to 310 nM.

As for `CC(C)c1cc(-c2ccc(F)c3ccccc23)nc(N)n1` [RS-127445, 2-amino-4-(4-fluoronaphth-1-yl)-6-isopropylpyrimidine, reference compound], in the test on 5-HT2B receptor, the 5-HT2B receptor selectivity is 1000 times. For the same compound, in test [1] (3 mg/kg, intraperitoneal, FIG. 1), the “amount of the leaked protein” value is listed as “showed an effect to reduce amount of the leaked protein”. In addition, in test [1] (dose increased from 3 mg/kg to 10 mg/kg, intraperitoneal, FIG. 1), the “amount of the leaked protein versus reference value” was “did not reduced to the reference value”.

Regarding `CC1CCN(CC[C@H]2CCCN2S(=O)(=O)c2cccc(O)c2)CC1` [SB-269970, (R)-3-(2-(2-(4-methylpiperidin-1-yl)ethyl)pyrrolidine-1-sulfonyl)phenol, reference compound], the “amount of the leaked protein versus reference value” in test [1] (dose increased from 3 mg/kg to 30 mg/kg, intraperitoneal, FIG. 2) is recorded as “did not reduced the amount of leaked protein to the reference value”. The “amount of the leaked protein” value in test [1] (from 10 mg/kg, intraperitoneal, FIG. 2) is on record as “showed the effect”.
